Measurements: patent US20150005277A1, “Protein Kinase Inhibitors and Uses Thereof” (Beigene, Ltd., priority 2013, published 2015)
pIC50: −log10 of the molar value.

Columns and labels:
[1] = target: T1, phosphorylated Btk at Tyr223 in Ramos cells (Homo sapiens, UniProt Q06187); assay: Btk pY223 Cellular Assay (HTRF, Ramos cells); assay type: cell-based; details: 1 hour compound incubation, stimulated with pervanadate or Na3VO4, read-out: 1050 (nM) Btk pY223
T1 construct: determine the endogenous levels of phosphorylated Btk at Tyr223; endogenous in cells; host or cells: Ramos cells (CRL-1596, ATCC)
T1 sequence (Q06187 whole entry): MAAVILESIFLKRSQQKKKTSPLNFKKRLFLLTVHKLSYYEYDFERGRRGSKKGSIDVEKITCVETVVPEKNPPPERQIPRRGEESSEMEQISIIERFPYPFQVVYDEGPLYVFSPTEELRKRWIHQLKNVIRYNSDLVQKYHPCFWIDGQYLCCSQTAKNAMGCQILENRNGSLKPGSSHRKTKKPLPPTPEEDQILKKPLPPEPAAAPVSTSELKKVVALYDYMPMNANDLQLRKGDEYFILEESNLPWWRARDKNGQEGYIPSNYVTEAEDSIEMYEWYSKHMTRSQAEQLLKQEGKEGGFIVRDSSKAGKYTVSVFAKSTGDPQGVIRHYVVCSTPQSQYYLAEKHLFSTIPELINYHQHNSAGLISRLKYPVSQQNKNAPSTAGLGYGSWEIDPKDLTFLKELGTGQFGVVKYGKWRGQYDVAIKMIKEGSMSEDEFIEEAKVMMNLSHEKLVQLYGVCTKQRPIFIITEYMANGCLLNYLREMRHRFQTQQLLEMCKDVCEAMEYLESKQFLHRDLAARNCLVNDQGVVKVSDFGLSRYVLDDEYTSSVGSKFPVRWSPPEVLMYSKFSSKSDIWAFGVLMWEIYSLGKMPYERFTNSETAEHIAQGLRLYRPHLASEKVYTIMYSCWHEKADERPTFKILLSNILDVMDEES
Procedure: Btk pY223 cellular assay is a HTRF based assay intended to determine the endogenous levels of phosphorylated Btk at Tyr223. Phosphorylated Tyr223 is necessary for full activation of Btk.
Briefly, Ramos cells were serum starved in 0.5% FBS-containing RPMI1640 for 2 hours. Following starvation, the cells were incubated with compounds to be detected at various concentrations in a CO2 incubator for 1 hour. After incubation, cells were stimulated with 1 mM pervanadate (PV) or Na3VO4 (OV) for 20 min. Then, the cells were spinned down and lysed with 1× lysis buffer at RT for 10 min (4× lysis buffer supplied in the kit). During the incubation, 1× antibody mix was prepared by diluting anti-Btk-d2 and anti-pBtk-K in detection buffer (supplied in the kit). […] After that, 18 ul of cell lysate was transferred to the assay plate pre-loaded with antibody solution. After mixing gently and spinning briefly, the plate was sealed up and kept in dark at RT for 18 hours. The fluorescence emission was measured at two different wavelengths (665 nm and 620 nm) on a compatible HTRF reader (PHERAstar FS, BMG).

Recombinant Btk = Recombinant Btk (Homo sapiens, UniProt Q06187); assay: Btk Kinase Assay (TR-FRET)
Chain of Recombinant Btk (Q06187 whole entry): as above

Row | Structure (SMILES) | IC50 [1] | pIC50 (Recombinant Btk)
1 | C#CC(=O)N1CCCC(n2nc(-c3ccc(Oc4ccccc4)cc3)c(C(N)=O)c2N)C1 (stereo not shown) [Compound I-13, 5-Amino-3-(4-phenoxyphenyl)-1-(1-propioloylpiperidin-3-yl)-1H-pyrazole-4-carboxamide] | 7.5 nM | 9.68
2 | NC(=O)c1c(N)c(C2CCNCC2)cn1-c1ccc(Oc2ccccc2)cc1 [II-9, 3-Amino-1-(4-phenoxyphenyl)-4-(piperidin-4-yl)-1H-pyrrole-2-carboxamide] |  | 5.12
3 | C=CC(=O)N1CCC[C@@H](n2nc(-c3ccc(C)c(OC)c3)c(C(N)=O)c2N)C1 [Compound I-15, (R)-1-(1-Acryloylpiperidin-3-yl)-5-amino-3-(3-methoxy-4-methylphenyl)-1H-pyrazole-4-carboxamide] | 0.3 nM | 9.62
4 | C=CS(=O)(=O)N1CCCC(n2nc(-c3ccc(Oc4ccccc4)cc3)c(C(N)=O)c2N)C1 (stereo not shown) [Compound I-8, 5-Amino-3-(4-phenoxyphenyl)-1-(1-(vinylsulfonyl)piperidin-3-yl)-1H-pyrazole-4-carboxamide] |  | 9.64
5 | CN1CC=C(C(=O)N2CCCC(n3nc(-c4ccc(Oc5ccccc5)cc4)c(C(N)=O)c3N)C2)CC1 (stereo not shown) [Compound I-7, 5-Amino-1-(1-(1-methyl-1,2,3,6-tetrahydropyridine-4-carbonyl)piperidin-3-yl)-3-(4-phenoxyphenyl)-1H-pyrazole-4-carboxamide] |  | 7.85
6 | CN(C)C/C=C/C(=O)N1CCCC(n2nc(-c3ccc(Oc4ccccc4)cc3)c(C(N)=O)c2N)C1 (stereo not shown) [Compound I-4, (E)-5-Amino-1-(1-(4-(dimethylamino)but-2-enoyl)piperidin-3-yl)-3-(4-phenoxyphenyl)-1H-pyrazole-4-carboxamide] | 3.6 nM | 9.25
7 | C=CC(=O)N1CCc2c(c(N)c(C(N)=O)n2-c2ccc(OCc3ccccc3)cc2)C1 [II-4, 5-Acryloyl-3-amino-1-(4-(benzyloxy)phenyl)-4,5,6,7-tetrahydro-1H-pyrrolo[3,2-c]pyridine-2-carboxamide] |  | 7.60
8 | C=CC(=O)N1CCC[C@@H](n2nc(-c3ccc(OCC4CC4)cc3)c(C(N)=O)c2N)C1 [Compound I-17, (R)-1-(1-Acryloylpiperidin-3-yl)-5-amino-3-(4-(cyclopropylmethoxy)phenyl)-1H-pyrazole-4-carboxamide] |  | 9.04
9 | CC=CC(=O)N1CCCC(n2nc(-c3ccc(Oc4ccccc4)cc3)c(C(N)=O)c2N)C1 (stereo not shown) [Compound I-5, 5-Amino-1-(1-(but-2-enoyl)piperidin-3-yl)-3-(4-phenoxyphenyl)-1H-pyrazole-4-carboxamide] | 42.6 nM | 8.60
10 | C=CC(=O)N1CCC[C@@H](n2nc(-c3ccc(Cl)cc3)c(C(N)=O)c2N)C1 [Compound I-14, (R)-1-(1-Acryloylpiperidin-3-yl)-5-amino-3-(4-chlorophenyl)-1H-pyrazole-4-carboxamide] | 3.3 nM | 9.27
11 | NC(=O)c1c(-c2ccc(Oc3ccccc3)cc2)nn(C2CCCN(C(=O)CCl)C2)c1N (stereo not shown) [Compound I-6, 5-Amino-1-(1-(2-chloroacetyl)piperidin-3-yl)-3-(4-phenoxyphenyl)-1H-pyrazole-4-carboxamide] | 10.4 nM | 9.66
12 | C=CC(=O)N1CCC[C@@H](n2nc(-c3ccc(Cl)c(OC)c3)c(C(N)=O)c2N)C1 [Compound I-21, (R)-1-(1-Acryloylpiperidin-3-yl)-5-amino-3-(4-chloro-3-methoxyphenyl)-1H-pyrazole-4-carboxamide] |  | 9.74
13 | N#C/C=C\CN1CCCC(n2nc(-c3ccc(Oc4ccccc4)cc3)c(C(N)=O)c2N)C1 (stereo not shown) [Compound I-12, (Z)-5-Amino-1-(1-(3-cyanoallyl)piperidin-3-yl)-3-(4-phenoxyphenyl)-1H-pyrazole-4-carboxamide] |  | 7.74
14 | C=CC(=O)N1Cc2c(N)c(C(N)=O)n(-c3ccc(Oc4ccc(C(C)(C)C)cc4)cc3)c2C1 [II-6, 5-Acryloyl-3-amino-1-(4-(4-(tert-butyl)phenoxy)phenyl)-1,4,5,6-tetrahydropyrrolo[3,4-b]pyrrole-2-carboxamide] |  | 7.47
15 | C=CC(=O)Nc1ccc2c(N)c(C(N)=O)n(-c3ccc(Oc4ccccc4)cc3)c2c1 [II-8, 6-Acrylamido-3-amino-1-(4-phenoxyphenyl)-1H-indole-2-carboxamide] |  | 6.68
16 | C=CC(=O)N1Cc2c(N)c(C(N)=O)n(-c3ccc(Oc4ccccc4)cc3)c2C1 [II-5, 5-Acryloyl-3-amino-1-(4-phenoxyphenyl)-1,4,5,6-tetrahydropyrrolo[3,4-b]pyrrole-2-carboxamide] |  | 8.05
17 | C=CC(=O)N1CCC[C@@H](n2nc(-c3ccc(OC)cc3)c(C(N)=O)c2N)C1 [Compound I-16, (R)-1-(1-Acryloylpiperidin-3-yl)-5-amino-3-(4-methoxyphenyl)-1H-pyrazole-4-carboxamide] | 17.7 nM | 8.85
18 | C=CC(=O)N1CCCC(c2cn(-c3ccc(Oc4ccccc4)cc3)c(C(N)=O)c2N)C1 (stereo not shown) [II-10, 4-(1-Acryloylpiperidin-3-yl)-3-amino-1-(4-phenoxyphenyl)-1H-pyrrole-2-carboxamide] |  | 8.57
19 | N#CCC(=O)N1CCCC(n2nc(-c3ccc(Oc4ccccc4)cc3)c(C(N)=O)c2N)C1 (stereo not shown) [Compound I-9, 5-Amino-1-(1-(2-cyanoacetyl)piperidin-3-yl)-3-(4-phenoxyphenyl)-1H-pyrazole-4-carboxamide] |  | 7.66
20 | C=CC(=O)N1CC2(CC(n3nc(-c4ccc(Oc5ccccc5)cc4)c(C(N)=O)c3N)C2)C1 [Compound I-19, 1-(2-Acryloyl-2-azaspiro[3.3]heptan-6-yl)-5-amino-3-(4-phenoxyphenyl)-1H-pyrazole-4-carboxamide] |  | 9.82
21 | C=CC(=O)N1CCc2c(c(N)c(C(N)=O)n2-c2ccc(Oc3ccccc3)cc2)C1 [II-1, 5-Acryloyl-3-amino-1-(4-phenoxyphenyl)-4,5,6,7-tetrahydro-1H-pyrrolo[3,2-c]pyridine-2-carboxamide] | 16.6 nM | 8.48
22 | C=CC(=O)N1CCC[C@@H](n2nc(-c3ccc(OCC(C)C)cc3)c(C(N)=O)c2N)C1 [Compound I-20, (R)-1-(1-Acryloylpiperidin-3-yl)-5-amino-3-(4-isobutoxyphenyl)-1H-pyrazole-4-carboxamide] |  | 9.31
23 | N#C/C=C/CN1CCCC(n2nc(-c3ccc(Oc4ccccc4)cc3)c(C(N)=O)c2N)C1 (stereo not shown) [Compound I-11, (E)-5-Amino-1-(1-(3-cyanoallyl)piperidin-3-yl)-3-(4-phenoxyphenyl)-1H-pyrazole-4-carboxamide] |  | 8.12
24 | C=CC(=O)NCCN1CCc2c(c(N)c(C(N)=O)n2-c2ccc(Oc3ccccc3)cc2)C1 [II-3, 5-(2-Acrylamidoethyl)-3-amino-1-(4-phenoxyphenyl)-4,5,6,7-tetrahydro-1H-pyrrolo[3,2-c]pyridine-2-carboxamide] |  | 6.32
25 | C=CC(=O)N1CCC[C@@H](n2nc(-c3ccc(OC(C)C)cc3)c(C(N)=O)c2N)C1 [Compound I-18, (R)-1-(1-Acryloylpiperidin-3-yl)-5-amino-3-(4-isopropoxyphenyl)-1H-pyrazole-4-carboxamide] |  | 8.62
26 | CN(C)C(=O)/C=C/CN1CCCC(n2nc(-c3ccc(Oc4ccccc4)cc3)c(C(N)=O)c2N)C1 (stereo not shown) [Compound I-10, (E)-5-Amino-1-(1-(4-(dimethylamino)-4-oxobut-2-enyl)piperidin-3-yl)-3-(4-phenoxyphenyl)-1H-pyrazole-4-carboxamide] |  | 7.74
27 | C=CC(=O)N1CCC(N2CCc3c(c(N)c(C(N)=O)n3-c3ccc(Oc4ccccc4)cc3)C2)C1 (stereo not shown) [II-2, 5-(1-Acryloylpyrrolidin-3-yl)-3-amino-1-(4-phenoxyphenyl)-4,5,6,7-tetrahydro-1H-pyrrolo[3,2-c]pyridine-2-carboxamide] |  | 5.49
28 | C=CC(=O)Nc1ccc2c(c1)c(N)c(C(N)=O)n2-c1ccc(Oc2ccccc2)cc1 [II-7, 5-Acrylamido-3-amino-1-(4-phenoxyphenyl)-1H-indole-2-carboxamide] | 55.6 nM | 8.03
